Values quoted from earlier work in paper PMC7403827 (Clinical and Translational Medicine, 2020).

System: CYP3A4
Parameters: method as in PMID 28967981
Conditions: cited from earlier work

N#CC1(c2ccc(NC(=O)c3cccnc3NCc3ccncc3)cc2)CCCC1 [Apatinib]
inhibitory effect on CYP3A4: strong inhibitory effect
